Key:
[1] = Particle size distribution; format: physicochemical
[2] = cited from earlier work
[3] = as mentioned in WO2008/069327 A1; cited from earlier work

Structure (SMILES)	Particle size distribution D(0.1) [1] [μm]	Particle size distribution D(0.5) [1] [μm]	Particle size distribution D(0.9) [1] [μm]	physical change between the sorption/desorption cycle ([2]; DVS, two cycles, appearance changed as humidity increased from 70% to 90% RH)	hygroscopic nature confirmed by Dynamic vapor sorption (DVS) analysis ([2]; amorphous canagliflozin prepared per US'487 A1 (toluene solution into n-heptane))	stability and handling of amorphous form [3]
Cc1ccc([C@@H]2O[C@H](CO)[C@@H](O)[C@H](O)[C@H]2O)cc1Cc1ccc(-c2ccc(F)cc2)s1 [Example-2, (1S)-1,5-anhydro-1-[3-[[5-(4-fluorophenyl)-2-thienyl]methyl]-4-methylphenyl]-D-glucitol]	3.29	7.69	14.5	–	–	–
Cc1ccc([C@@H]2O[C@H](CO)[C@@H](O)[C@H](O)[C@H]2O)cc1Cc1ccc(-c2ccc(F)cc2)s1 [Example-4, (1S)-1,5-anhydro-1-[3-[[5-(4-fluorophenyl)-2-thienyl]methyl]-4-methylphenyl]-D-glucitol]	28.7	61.4	116.4	–	–	–
Cc1ccc([C@@H]2O[C@H](CO)[C@@H](O)[C@H](O)[C@H]2O)cc1Cc1ccc(-c2ccc(F)cc2)s1 [amorphous canagliflozin, (1S)-1,5-anhydro-1-[3-[[5-(4-fluorophenyl)-2-thienyl]methyl]-4-methylphenyl]-D-glucitol]	–	–	–	conversion or partial conversion from the amorphous state to a crystalline state	hygroscopic	suffers from stability and handling issues such as poor filterability

— US10633372B2, “Process for the preparation of amorphous (1S)-1,5-anhydro-1-[3-[[5-(4 fluorophenyl)-2-thienyl]-4-methylphenyl]-D-glucitol and its polymorphs thereof” (MSN LABORATORIES PRIVATE LIMITED, priority 2015, dated 2020)
